# Values joined by “and” are separate entries in the source; they are usually repeats but may differ in a detail not shown here. Equal entries are not always repeated.
# Assays:
# [1] = system: patients with PD and constipation; assay: Phase 2 trial Stage 2: CNS symptoms (UPDRS, MMSE, PDHQ, BDI-II, sleep diary); assay type: in vivo, human
# Description: Exploratory end-points, in addition to constipation, included for example, (i) depression assessed using the Beck Depression Inventory (BDI-II) (Steer et al. 2000) and Unified Parkinson's Disease Rating Scale (UPDRS); (ii) cognition assessed using the Mini Mental State Examination (MMSE) (Palsteia et al. 2018), Unified Parkinson's Disease Rating Scale (UPDRS), and Trail Making Test (TMT); (iii) sleep and REM-behavior disorder (RBD) using a daily sleep diary, I-Button Temperature Assessment, a REM sleep behavior disorder (RBD) questionnaire (RBDQ) (Stiasny-Kolster et al. 2007), and the UPDRS; (iv) hallucinations assessed using the PD hallucinations questionnaire (PDHQ) (Papapetropoulos et al. 2008), the UPDRS, and direct questioning; (v) fatigue using the Parkinson's Disease Fatigue Scale (PFS-16) and the UPDRS; (vi) motor functions using the UPDRS; and (vii) non-motor functions using the UPDRS.
# Assessments were made at baseline and at the end of the fixed dose and washout periods. Circadian system status was evaluated by continuously monitoring wrist skin temperature (Thermochron iButton DS1921H; Maxim, Dallas) following published procedures (Sarabia et al. 2008).
# CNS Symptoms in Stage 2: An exploratory analysis was done with respect to the sleep data, the body temperature data, mood, fatigue, hallucinations, cognition and other motor and non-motor symptoms of PD. Continuous measurements within a subject were compared with a paired t-test and continuous measurements between subject groups were compared with a two-group t-test. Categorical data were compared with a chi-squared test or a Fisher's exact test if the expected cell counts are too small for a chi-squared test.
# [2] = system: patients with PD and constipation; assay: Phase 2 trial: safety and adverse event profile; assay type: in vivo, human
# Description: Each dose period was staggered, so that subjects 1-2 were administered a single dose of the drug at the lowest dose of 25 mg. Once 24 hours have elapsed, and provided there are no safety concerns, the patient was sent home and brought back on day 4-8 for the next dose. During the days the subjects are home, they completed the daily diaries and e-mailed them to the study coordinators. Subjects 3-10 were dosed after the first 2 subjects have been observed for 72 hours, i.e. on Day 4. Subjects 1-2 were also brought back on Day 4-8 and administered a single dose of 50 mg. Once another 24 hours have elapsed and provided there are no safety concerns, the patients were all sent home and instructed to return on Day 7 for the next dosing level. This single dosing regimen was continued until each subject was administered a single dose of 200 mg or has reached a dose limiting toxicity (DLT). DLT was the dose which induces repeated vomiting, diarrhea, abdominal pain or symptomatic postural hypotension within 24 hours of dosing.
# Adverse events were coded using the current version of MedDRA. Severity of AEs were assessed by investigators according to CTCAE (v4.03): Grade 1 is labeled as Mild, Grade 2 as Moderate, and Grade 3 and above as Severe. […] The number (percentage) of subjects who experienced an AE during escalation and fixed dosing periods were summarized by dose level and overall for each stage. The denominator for calculating the percentages were based on the number of subjects ever exposed to each dose and overall.
smiles,measurement,setting,value
"CC(C)[C@@H](CC[C@@H](C)[C@H]1CC[C@H]2[C@@H]3[C@H](O)C[C@H]4C[C@@H](NCCCNCCCCN)CC[C@]4(C)[C@H]3CC[C@]12C)OS(=O)(=O)O (single isomer, unassigned) [squalamine (ENT-01), squalamine]",increase in total sleep time,[1]; 250 mg vs baseline,18%
same,hallucinations and delusions improved or disappeared,"[1]; during treatment, patients with hallucinations (5) or delusions (1) at baseline",5 of 6
same,improvement in frequency of arm or leg thrashing,[1]; maximal dose vs baseline,100%
same,improvement in UPDRS Part 1,[1]; wash-out vs baseline,~20% and 18%
same,"Diarrhea, patients","[2]; Stage 1, 4/10",40%
same,"nausea, patients","[2]; Stage 1, 4/10",40%
same,"Diarrhea, patients","[2]; Stage 2, 15/34",44%
same,"nausea, patients","[2]; Stage 2, 18/34",52.9%
same,"worsening of hemorrhoids, patients","[2]; both stages, 1/44",2.2%
same,"worsening of acid reflux, patients","[2]; both stages, 2/44",4.5%
same,"flatulence, patients","[2]; both stages, 3/44",6.8%
same,"vomiting, patients","[2]; both stages, 3/44",6.8%
same,"dizziness, patients","[2]; both stages, 8/44",18%
same,"abdominal pain, patients","[2]; both stages, 11/44",32%
